Results published in patent publication US11478515B2, “Compositions comprising probiotic and prebiotic components and mineral salts, with lactoferrin” (GlaxoSmithKline Consumer Healthcare S.R.L., priority 2009, dated 2022).
Where a SMILES comes first, the peptide text is derived from it. Bridges are numbered along the chain shown (N, C = ends). [ ]: non-standard residue; d: D form. The star is where a group is joined. Ileψ(thiazoline)Cys = CC[C@H](C)[C@H](N)C1=N[C@H](C(=O)*)CS1; dOrn = NCCC[C@@H](N)C(=O)O

Test system: Bifidobacterium longum R175
Assay: antibiotic resistance profile
Type: cell-based
Conditions: dose of each agent

Compound	outcome (antibiotic resistance profile)
CC1(C)S[C@@H]2[C@H](NC(=O)[C@H](N)c3ccccc3)C(=O)N2[C@H]1C(=O)O [Ampicillin]	susceptible
Neomycin	resistant
CC(=O)OCC1=C(C(=O)O)N2C(=O)[C@@H](NC(=O)Cc3cccs3)[C@H]2SC1 [cephalothin]	susceptible
CCC[C@@H]1C[C@@H](C(=O)N[C@@H]([C@H]2O[C@H](SC)[C@H](O)[C@@H](O)[C@H]2O)[C@@H](C)O)N(C)C1 [lincomycin]	intermediate
CO[C@H]1/C=C/O[C@@]2(C)Oc3c(C)c(O)c4c(O)c(c(/C=N/N5CCN(C)CC5)c(O)c4c3C2=O)NC(=O)/C(C)=C\C=C\[C@H](C)[C@H](O)[C@@H](C)[C@@H](O)[C@@H](C)[C@H](OC(C)=O)[C@@H]1C [Rifampin]	susceptible
CC1(C)S[C@@H]2[C@H](NC(=O)Cc3ccccc3)C(=O)N2[C@H]1C(=O)O [penicillin G]	susceptible
CN[C@H](CC(C)C)C(=O)N[C@H]1C(=O)N[C@@H](CC(N)=O)C(=O)N[C@H]2C(=O)N[C@H]3C(=O)N[C@H](C(=O)N[C@H](C(=O)O)c4cc(O)cc(O)c4-c4cc3ccc4O)[C@H](O)c3ccc(c(Cl)c3)Oc3cc2cc(c3O[C@@H]2O[C@H](CO)[C@@H](O)[C@H](O)[C@H]2O[C@H]2C[C@](C)(N)[C@H](O)[C@H](C)O2)Oc2ccc(cc2Cl)[C@H]1O [Vancomycin]	susceptible
CO[C@@H]1[C@@H](OC(N)=O)[C@@H](O)[C@H](Oc2ccc3c(O)c(NC(=O)c4ccc(O)c(CC=C(C)C)c4)c(=O)oc3c2C)OC1(C)C [novobiocin]	susceptible
CC[C@H]1OC(=O)[C@H](C)[C@@H](O[C@H]2C[C@@](C)(OC)[C@@H](O)[C@H](C)O2)[C@H](C)[C@@H](O[C@@H]2O[C@H](C)C[C@H](N(C)C)[C@H]2O)[C@](C)(O)C[C@@H](C)C(=O)[C@H](C)[C@@H](O)[C@]1(C)O [erythromycin]	susceptible
Polymyxin B	resistant
Cc1noc(NS(=O)(=O)c2ccc(N)cc2)c1C [sulfisoxazole]	resistant
O=C(N[C@H](CO)[C@H](O)c1ccc([N+](=O)[O-])cc1)C(Cl)Cl [chloramphenicol]	susceptible
CC[C@H](C)[C@H](N)C1=N[C@H](C(=O)N[C@@H](CC(C)C)C(=O)N[C@H](CCC(=O)O)C(=O)N[C@H](C(=O)N[C@H]2CCCCNC(=O)[C@H](CC(N)=O)NC(=O)[C@@H](CC(=O)O)NC(=O)[C@H](Cc3cnc[nH]3)NC(=O)[C@@H](Cc3ccccc3)NC(=O)[C@H]([C@@H](C)CC)NC(=O)[C@@H](CCCN)NC2=O)[C@@H](C)CC)CS1 [Bacitracin] ({Ileψ(thiazoline)Cys}-L[dE]IK[dOrn]I[dF]H[dD]N; lactam 4-C)	susceptible
[H]/N=C(/N)N[C@H]1[C@H](O)[C@@H](O)[C@H](O[C@@H]2O[C@@H](C)[C@](O)(C=O)[C@H]2O[C@@H]2O[C@@H](CO)[C@H](O)[C@@H](O)[C@@H]2NC)[C@@H](N/C(N)=N\[H])[C@@H]1O [streptomycin]	resistant
gentamycin	resistant
